Laboratory results published in patent US12427210B2, “Compounds comprising a fibroblast activation protein ligand and use thereof” (priority 2019, dated 2025).
Where two headings read alike, the source gives them in different places. Numbered stars: 1 amine (or outer) side, 2 acyl side, 3 side chain; on linkers, the order of the positions; unused ones are H or OH. Bridge positions count the residues as written; N and C are the ends. Peptide text beside a SMILES is read from it. * marks the point of attachment. X1 = O=C(O)CN1CCN(CC(=O)O)CCN(CC(=O)N2CCN(Cc3cc(C[*:1])cc(C[*:2])c3)CC2)CCN(CC(=O)O)CC1; Hexanoyl = CCCCCC(=O)*

Tests used:
[1] = tested on: serine protease NS3 (a.a. 3-181) from Hepatitis C virus genotype 1b
D1 (h) = D1 (h) (Homo sapiens, UniProt P21728); test: biochemical; conditions: read-out: % Inhibition of Specific Binding
D1 (h), sequence (P21728 whole entry): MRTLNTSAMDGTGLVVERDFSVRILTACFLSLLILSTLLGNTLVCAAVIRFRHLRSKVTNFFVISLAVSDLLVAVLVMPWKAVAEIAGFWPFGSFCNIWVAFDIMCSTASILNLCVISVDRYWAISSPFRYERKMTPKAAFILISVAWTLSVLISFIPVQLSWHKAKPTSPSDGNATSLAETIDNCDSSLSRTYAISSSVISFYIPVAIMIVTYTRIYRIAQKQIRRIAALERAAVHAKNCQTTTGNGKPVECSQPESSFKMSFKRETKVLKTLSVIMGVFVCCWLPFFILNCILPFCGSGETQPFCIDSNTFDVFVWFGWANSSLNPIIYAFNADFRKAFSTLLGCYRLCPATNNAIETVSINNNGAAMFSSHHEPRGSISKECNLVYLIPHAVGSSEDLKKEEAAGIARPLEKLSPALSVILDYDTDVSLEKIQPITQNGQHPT

H2 (h) = H2 (h) (Homo sapiens, UniProt P25021); test: biochemical; conditions: read-out: % Inhibition of Specific Binding
H1 (h) = H1 (h) (Homo sapiens, UniProt P35367); test: biochemical; conditions: read-out: % Inhibition of Specific Binding
H1 (h), sequence (P35367 whole entry): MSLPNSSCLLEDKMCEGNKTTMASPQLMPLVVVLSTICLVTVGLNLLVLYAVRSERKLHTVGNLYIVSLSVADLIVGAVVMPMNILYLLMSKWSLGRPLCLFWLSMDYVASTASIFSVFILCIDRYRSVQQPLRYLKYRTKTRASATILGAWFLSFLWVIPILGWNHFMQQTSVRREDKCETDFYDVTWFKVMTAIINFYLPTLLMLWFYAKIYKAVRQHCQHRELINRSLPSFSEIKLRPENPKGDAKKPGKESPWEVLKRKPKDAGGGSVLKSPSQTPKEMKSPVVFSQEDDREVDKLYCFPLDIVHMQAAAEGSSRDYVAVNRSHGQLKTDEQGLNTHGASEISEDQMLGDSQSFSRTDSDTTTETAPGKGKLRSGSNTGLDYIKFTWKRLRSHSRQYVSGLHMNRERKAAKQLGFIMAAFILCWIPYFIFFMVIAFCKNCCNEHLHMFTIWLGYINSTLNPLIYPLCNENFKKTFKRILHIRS

Cathepsin S = Cathepsin S (Homo sapiens, UniProt P25774); test: biochemical; conditions: read-out: Percentage inhibition (%)
Cathepsin S, sequence (P25774 115-331): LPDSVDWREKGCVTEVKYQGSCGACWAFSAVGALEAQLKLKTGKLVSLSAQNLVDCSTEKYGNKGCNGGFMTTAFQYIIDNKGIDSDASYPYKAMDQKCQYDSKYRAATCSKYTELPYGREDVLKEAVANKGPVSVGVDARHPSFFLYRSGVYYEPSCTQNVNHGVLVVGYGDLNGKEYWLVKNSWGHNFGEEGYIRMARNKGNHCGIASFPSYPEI

D2S (h) = D2S (h) (Homo sapiens, UniProt P14416); test: biochemical; conditions: read-out: % Inhibition of Specific Binding
[2] = tested on: serine protease NS3 (a.a. 3-181) from Hepatitis C virus genotype 1b (mutant R155K)
CB1 (h) = CB1 (h) (Homo sapiens, UniProt P21554); test: biochemical; conditions: read-out: % Inhibition of Specific Binding
CB1 (h), sequence (P21554 whole entry): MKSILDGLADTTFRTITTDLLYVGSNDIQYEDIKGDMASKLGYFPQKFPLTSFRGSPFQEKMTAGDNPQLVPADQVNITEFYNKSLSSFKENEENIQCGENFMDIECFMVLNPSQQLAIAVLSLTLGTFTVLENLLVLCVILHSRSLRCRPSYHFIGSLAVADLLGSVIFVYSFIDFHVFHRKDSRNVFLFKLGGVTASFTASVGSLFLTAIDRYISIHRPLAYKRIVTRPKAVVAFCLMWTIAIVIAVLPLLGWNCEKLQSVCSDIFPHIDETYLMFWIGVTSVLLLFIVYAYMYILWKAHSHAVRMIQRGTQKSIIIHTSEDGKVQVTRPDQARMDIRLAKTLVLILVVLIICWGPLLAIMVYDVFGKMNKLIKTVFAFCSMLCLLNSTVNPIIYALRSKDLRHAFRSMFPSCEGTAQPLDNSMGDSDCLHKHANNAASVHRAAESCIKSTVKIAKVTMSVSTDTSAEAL

[3] = target: T1, Ubiquitin carboxy-terminal hydrolase L1 (Homo sapiens, UniProt P09936); test: biochemical; conditions: read-out: Percentage inhibition (%)
T1 sequence (P09936 1-223): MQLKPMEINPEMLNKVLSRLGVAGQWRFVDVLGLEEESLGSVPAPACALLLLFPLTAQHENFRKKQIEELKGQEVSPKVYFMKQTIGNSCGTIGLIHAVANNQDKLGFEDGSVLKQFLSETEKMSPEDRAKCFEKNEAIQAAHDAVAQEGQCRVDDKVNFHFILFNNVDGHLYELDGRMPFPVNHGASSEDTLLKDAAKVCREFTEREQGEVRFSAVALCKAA

Na+ channel (site 2) = test: SafetyScreen44 Na+ channel (site 2) (antagonist radioligand); format: binding; conditions: 10 μM
A20 = target: T2, A20 (Homo sapiens, UniProt P21580); test: biochemical; conditions: read-out: Percentage inhibition (%)
T2 sequence (P21580 1-790): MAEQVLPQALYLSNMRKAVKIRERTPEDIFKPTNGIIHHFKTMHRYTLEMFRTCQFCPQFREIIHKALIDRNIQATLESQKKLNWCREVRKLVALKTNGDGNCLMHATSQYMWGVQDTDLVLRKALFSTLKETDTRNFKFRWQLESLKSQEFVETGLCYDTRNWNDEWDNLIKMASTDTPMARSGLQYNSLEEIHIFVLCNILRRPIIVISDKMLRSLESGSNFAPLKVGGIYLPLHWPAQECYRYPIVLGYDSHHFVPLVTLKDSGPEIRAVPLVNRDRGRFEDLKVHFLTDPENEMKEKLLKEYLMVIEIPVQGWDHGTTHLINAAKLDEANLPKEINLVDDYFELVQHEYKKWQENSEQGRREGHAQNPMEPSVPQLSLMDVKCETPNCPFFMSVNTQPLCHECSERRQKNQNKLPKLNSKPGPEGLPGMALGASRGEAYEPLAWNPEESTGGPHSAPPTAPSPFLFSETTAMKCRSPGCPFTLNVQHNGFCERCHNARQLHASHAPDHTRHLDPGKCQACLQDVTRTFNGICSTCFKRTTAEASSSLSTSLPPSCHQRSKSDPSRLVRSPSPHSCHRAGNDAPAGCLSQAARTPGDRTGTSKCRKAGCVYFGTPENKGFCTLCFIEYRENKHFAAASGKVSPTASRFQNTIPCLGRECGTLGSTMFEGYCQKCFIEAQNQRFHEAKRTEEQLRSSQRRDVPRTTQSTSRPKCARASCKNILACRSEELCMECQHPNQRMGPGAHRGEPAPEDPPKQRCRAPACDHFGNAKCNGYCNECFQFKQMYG

DPP8 = DPP8 (Homo sapiens, UniProt Q6V1X1); test: biochemical; conditions: read-out: Percentage inhibition (%)
DPP8, sequence (Q6V1X1 whole entry, species assumed): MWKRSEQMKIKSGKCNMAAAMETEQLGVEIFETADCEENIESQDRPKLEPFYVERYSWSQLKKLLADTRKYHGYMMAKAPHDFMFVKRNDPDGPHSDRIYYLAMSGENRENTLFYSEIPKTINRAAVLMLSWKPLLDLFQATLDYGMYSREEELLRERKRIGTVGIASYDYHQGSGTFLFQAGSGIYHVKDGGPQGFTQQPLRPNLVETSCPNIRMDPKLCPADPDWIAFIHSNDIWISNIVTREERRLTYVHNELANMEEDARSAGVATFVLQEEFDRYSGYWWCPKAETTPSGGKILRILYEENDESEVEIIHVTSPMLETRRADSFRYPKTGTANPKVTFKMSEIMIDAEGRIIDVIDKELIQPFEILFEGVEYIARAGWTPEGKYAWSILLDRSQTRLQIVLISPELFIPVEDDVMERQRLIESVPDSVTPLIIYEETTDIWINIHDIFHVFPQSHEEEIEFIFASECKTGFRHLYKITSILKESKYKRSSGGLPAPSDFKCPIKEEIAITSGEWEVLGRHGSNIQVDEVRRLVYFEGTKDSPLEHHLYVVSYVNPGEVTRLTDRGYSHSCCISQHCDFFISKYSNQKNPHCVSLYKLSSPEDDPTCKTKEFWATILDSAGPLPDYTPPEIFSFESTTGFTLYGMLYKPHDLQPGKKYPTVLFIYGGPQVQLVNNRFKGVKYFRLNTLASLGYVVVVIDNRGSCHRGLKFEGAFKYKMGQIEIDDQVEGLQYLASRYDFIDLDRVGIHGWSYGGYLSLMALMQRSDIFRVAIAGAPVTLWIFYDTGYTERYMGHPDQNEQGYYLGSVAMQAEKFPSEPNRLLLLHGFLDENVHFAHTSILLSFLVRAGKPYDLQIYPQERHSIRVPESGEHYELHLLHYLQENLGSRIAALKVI

[4] = target: norepinephrine transporter (h) (Homo sapiens, UniProt P23975); test: biochemical; conditions: read-out: % Inhibition of Specific Binding
norepinephrine transporter (h), sequence (P23975 whole entry): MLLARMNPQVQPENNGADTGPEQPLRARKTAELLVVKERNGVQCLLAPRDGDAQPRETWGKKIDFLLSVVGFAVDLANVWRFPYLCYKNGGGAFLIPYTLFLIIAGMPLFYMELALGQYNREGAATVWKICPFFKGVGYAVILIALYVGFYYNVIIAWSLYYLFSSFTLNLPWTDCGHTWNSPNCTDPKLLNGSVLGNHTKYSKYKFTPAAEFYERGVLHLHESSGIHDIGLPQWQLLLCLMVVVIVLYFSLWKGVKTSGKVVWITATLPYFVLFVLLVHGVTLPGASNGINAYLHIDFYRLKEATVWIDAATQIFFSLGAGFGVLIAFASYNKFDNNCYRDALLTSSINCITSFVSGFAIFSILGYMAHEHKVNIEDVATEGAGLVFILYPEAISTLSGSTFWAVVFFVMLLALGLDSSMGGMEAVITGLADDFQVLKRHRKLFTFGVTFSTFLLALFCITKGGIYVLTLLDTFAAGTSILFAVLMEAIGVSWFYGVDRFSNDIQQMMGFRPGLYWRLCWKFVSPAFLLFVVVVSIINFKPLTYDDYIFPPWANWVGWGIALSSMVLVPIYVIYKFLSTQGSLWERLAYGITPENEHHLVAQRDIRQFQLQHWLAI

Cathepsin B = Cathepsin B (Homo sapiens, UniProt P07858); test: biochemical; conditions: read-out: Percentage inhibition (%)
M3 (h) = M3 (h) (Homo sapiens, UniProt P20309); test: biochemical; conditions: read-out: % Inhibition of Specific Binding
M3 (h), sequence (P20309 whole entry): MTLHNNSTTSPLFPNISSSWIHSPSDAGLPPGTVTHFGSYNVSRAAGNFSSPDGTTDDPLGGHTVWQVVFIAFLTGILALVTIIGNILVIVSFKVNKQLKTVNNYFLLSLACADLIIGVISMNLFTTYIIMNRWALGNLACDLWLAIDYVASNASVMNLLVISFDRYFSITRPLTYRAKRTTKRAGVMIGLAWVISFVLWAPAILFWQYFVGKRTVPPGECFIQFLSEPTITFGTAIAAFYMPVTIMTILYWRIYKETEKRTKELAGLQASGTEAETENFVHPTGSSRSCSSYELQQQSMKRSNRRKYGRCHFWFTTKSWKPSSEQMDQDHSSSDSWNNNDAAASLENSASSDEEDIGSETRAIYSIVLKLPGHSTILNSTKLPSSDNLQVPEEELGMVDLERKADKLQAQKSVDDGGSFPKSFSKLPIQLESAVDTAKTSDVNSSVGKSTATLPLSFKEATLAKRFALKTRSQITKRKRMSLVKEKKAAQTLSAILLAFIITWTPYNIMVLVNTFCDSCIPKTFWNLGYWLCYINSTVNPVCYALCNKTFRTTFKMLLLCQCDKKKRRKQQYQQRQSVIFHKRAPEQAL

Deubiquitinase OTUD6B = target: T3, Deubiquitinase OTUD6B (Homo sapiens, UniProt Q8N6M0); test: biochemical; conditions: read-out: Percentage inhibition (%)
T3 sequence (Q8N6M0 1-293): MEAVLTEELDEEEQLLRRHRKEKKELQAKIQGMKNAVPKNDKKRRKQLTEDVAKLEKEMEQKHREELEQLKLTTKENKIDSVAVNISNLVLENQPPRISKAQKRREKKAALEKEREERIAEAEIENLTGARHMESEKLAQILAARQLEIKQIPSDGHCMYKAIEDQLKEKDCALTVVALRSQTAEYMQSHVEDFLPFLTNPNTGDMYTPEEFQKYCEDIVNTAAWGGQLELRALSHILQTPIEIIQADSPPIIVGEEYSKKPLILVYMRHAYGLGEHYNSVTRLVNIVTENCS

5-HT1A (h) = 5-HT1A (h) (Homo sapiens, UniProt P08908); test: biochemical; conditions: read-out: % Inhibition of Specific Binding
5-HT1A (h), sequence (P08908 whole entry): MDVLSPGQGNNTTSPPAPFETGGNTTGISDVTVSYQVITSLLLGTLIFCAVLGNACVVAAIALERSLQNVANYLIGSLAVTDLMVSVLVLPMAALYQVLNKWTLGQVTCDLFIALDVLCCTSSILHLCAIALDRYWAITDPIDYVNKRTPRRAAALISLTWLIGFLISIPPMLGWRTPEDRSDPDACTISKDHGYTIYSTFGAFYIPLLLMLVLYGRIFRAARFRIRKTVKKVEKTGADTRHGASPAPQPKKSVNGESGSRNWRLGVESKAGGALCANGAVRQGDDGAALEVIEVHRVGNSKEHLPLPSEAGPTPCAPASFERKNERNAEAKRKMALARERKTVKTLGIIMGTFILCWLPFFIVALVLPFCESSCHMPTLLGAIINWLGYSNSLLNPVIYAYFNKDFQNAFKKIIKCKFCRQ

Cathepsin L = Cathepsin L (Homo sapiens, UniProt P07711); test: biochemical; conditions: read-out: Percentage inhibition (%)
Cathepsin L, sequence (P07711 114-333, species assumed): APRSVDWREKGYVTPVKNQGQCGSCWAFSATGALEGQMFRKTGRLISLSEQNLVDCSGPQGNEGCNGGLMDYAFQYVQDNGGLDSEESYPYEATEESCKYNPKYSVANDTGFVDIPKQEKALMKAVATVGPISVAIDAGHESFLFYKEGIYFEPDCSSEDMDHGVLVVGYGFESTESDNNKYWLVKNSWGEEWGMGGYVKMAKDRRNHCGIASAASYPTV

Caspase-3 = target: T4, Caspase-3 (Homo sapiens, UniProt P42574); test: biochemical; conditions: read-out: Percentage inhibition (%)
T4 sequence (P42574 29-175 limits assumed): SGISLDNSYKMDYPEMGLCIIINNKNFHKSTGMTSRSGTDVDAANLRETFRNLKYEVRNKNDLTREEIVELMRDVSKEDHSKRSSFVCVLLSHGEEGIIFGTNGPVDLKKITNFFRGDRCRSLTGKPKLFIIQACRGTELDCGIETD
T4 sequence (P42574 176-277 limits assumed): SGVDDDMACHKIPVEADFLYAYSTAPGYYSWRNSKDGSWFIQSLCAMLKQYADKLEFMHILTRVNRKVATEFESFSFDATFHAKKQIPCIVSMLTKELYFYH

mu (MOP) (h) = mu (MOP) (h) (Homo sapiens, UniProt P35372); test: biochemical; conditions: read-out: % Inhibition of Specific Binding
mu (MOP) (h), sequence (P35372 whole entry): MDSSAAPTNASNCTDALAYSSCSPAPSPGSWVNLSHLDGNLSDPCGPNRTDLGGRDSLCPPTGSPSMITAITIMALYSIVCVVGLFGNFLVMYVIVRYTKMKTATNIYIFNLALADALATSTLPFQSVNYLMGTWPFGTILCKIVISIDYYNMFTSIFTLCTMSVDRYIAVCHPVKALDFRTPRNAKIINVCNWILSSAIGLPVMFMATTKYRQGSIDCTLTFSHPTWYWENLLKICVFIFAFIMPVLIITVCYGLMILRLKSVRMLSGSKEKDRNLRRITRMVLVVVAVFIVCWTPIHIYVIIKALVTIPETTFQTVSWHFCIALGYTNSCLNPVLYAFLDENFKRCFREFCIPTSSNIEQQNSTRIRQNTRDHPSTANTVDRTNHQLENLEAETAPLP

For CCCCCC(=O)N[C@H]1CSCc2cc(cc(CN3CCN(C(=O)CN4CCN(CC(=O)O)CCN(CC(=O)O)CCN(CC(=O)O)CC4)CC3)c2)CSC[C@@H](C(=O)N[C@@H](CC(=O)O)C(N)=O)NC(=O)[C@H](Cc2ccccc2)NC(=O)[C@H](CCC(N)=O)NC(=O)[C@H]([C@@H](C)O)NC(=O)[C@@H]2CCCN2C(=O)[C@@H]2CCCN2C1=O [Compound 3BP-3407, Hex-[Cys(tMeBn(DOTA-PP))-Pro-Pro-Thr-Gln-Phe-Cys]-Asp-NH2] (Hexanoyl-CPPTQFCD-NH2; linker 1-7 via X1), which “Percentage inhibition (%)” value ([1]; 1 μM) is on record?
The value was 1%.

And the “Percentage inhibition (%)” value ([1]; 10 μM)?
The value was 5%.

What about the inhibition at 10 µM (D1 (h)) of the same compound?
Its inhibition at 10 µM is 0%.

And the inhibition at 10 µM (H2 (h))?
The inhibition at 10 µM was -5%.

And the inhibition at 10 µM (H1 (h))?
Its inhibition at 10 µM is 11%.

What about the inhibition at 1 µM (Cathepsin S) of the same compound?
Its inhibition at 1 µM is 3%.

What about the inhibition at 10 µM (Cathepsin S) of the same compound?
The inhibition at 10 µM was 18%.

What about the inhibition at 10 µM (D2S (h)) of the same compound?
Its inhibition at 10 µM is 15%.

And the “Percentage inhibition (%)” value ([2]; 1 μM)?
The value was −2%.

What about the “Percentage inhibition (%)” value ([2]; 10 μM) of the same compound?
The value was 5%.

What about the inhibition at 10 µM (CB1 (h)) of the same compound?
Its inhibition at 10 µM is 5%.

And the inhibition at 1 µM [3]?
The inhibition at 1 µM was -2%.

What about the inhibition at 10 µM [3] of the same compound?
Its inhibition at 10 µM is 4%.

What about the “% Inhibition of Specific Binding” value (Na+ channel (site 2)) of the same compound?
The value was −7%.

And the inhibition at 1 µM (A20)?
The inhibition at 1 µM was 2%.

What about the inhibition at 10 µM (A20) of the same compound?
Its inhibition at 10 µM is -4%.

What about the inhibition at 1 µM (DPP8) of the same compound?
The inhibition at 1 µM was 1%.

And the inhibition at 10 µM (DPP8)?
The inhibition at 10 µM was 5%.

And the inhibition at 10 µM [4]?
Its inhibition at 10 µM is -8%.

What about the inhibition at 1 µM (Cathepsin B) of the same compound?
Its inhibition at 1 µM is 26%.

What about the inhibition at 10 µM (Cathepsin B) of the same compound?
Its inhibition at 10 µM is 36%.

And the inhibition at 10 µM (M3 (h))?
The inhibition at 10 µM was 10%.

And the inhibition at 1 µM (Deubiquitinase OTUD6B)?
The inhibition at 1 µM was 2%.

What about the inhibition at 10 µM (Deubiquitinase OTUD6B) of the same compound?
Its inhibition at 10 µM is 15%.

And the inhibition at 10 µM (5-HT1A (h))?
Its inhibition at 10 µM is -3%.

What about the inhibition at 1 µM (Cathepsin L) of the same compound?
The inhibition at 1 µM was 3%.

What about the inhibition at 10 µM (Cathepsin L) of the same compound?
Its inhibition at 10 µM is 6%.

What about the inhibition at 1 µM (Caspase-3) of the same compound?
Its inhibition at 1 µM is 1%.

And the inhibition at 10 µM (Caspase-3)?
The inhibition at 10 µM was -2%.

And the inhibition at 10 µM (mu (MOP) (h))?
Its inhibition at 10 µM is 2%.

With CCCCCC(=O)N[C@H]1CSCc2cc(CSCCNC(=O)CN3CCN(CC(=O)O)CCN(CC(=O)O)CCN(CC(=O)O)CC3)cc(c2)CSC[C@@H](C(=O)O)NC(=O)[C@H](Cc2ccccc2)NC(=O)[C@H](CCC(N)=O)NC(=O)[C@H]([C@@H](C)O)NC(=O)[C@@H]2CCCN2C(=O)[C@@H]2CCCN2C1=O [Compound 3BP-3554, Hex-[Cys(tMeBn(DOTA-AET))-Pro-Pro-Thr-Gln-Phe-Cys]-OH] as the compound, how does the “Percentage inhibition (%)” value ([1]; 1 μM) read?
The value was −5%.

And the “Percentage inhibition (%)” value ([1]; 10 μM)?
Its value is −9%.

What about the inhibition at 10 µM (D1 (h)) of the same compound?
The inhibition at 10 µM was 7%.

And the inhibition at 10 µM (H2 (h))?
The inhibition at 10 µM was -16%.

What about the inhibition at 10 µM (H1 (h)) of the same compound?
Its inhibition at 10 µM is 4%.

And the inhibition at 1 µM (Cathepsin S)?
The inhibition at 1 µM was -10%.

What about the inhibition at 10 µM (Cathepsin S) of the same compound?
The inhibition at 10 µM was -23%.

And the inhibition at 10 µM (D2S (h))?
Its inhibition at 10 µM is -7%.

What about the “Percentage inhibition (%)” value ([2]; 1 μM) of the same compound?
Its value is −1%.

What about the “Percentage inhibition (%)” value ([2]; 10 μM) of the same compound?
The value was 0%.

What about the inhibition at 10 µM (CB1 (h)) of the same compound?
Its inhibition at 10 µM is -7%.

And the inhibition at 1 µM [3]?
The inhibition at 1 µM was -4%.

What about the inhibition at 10 µM [3] of the same compound?
The inhibition at 10 µM was 4%.

And the “% Inhibition of Specific Binding” value (Na+ channel (site 2))?
Its value is 14%.

What about the inhibition at 1 µM (A20) of the same compound?
The inhibition at 1 µM was 1%.

And the inhibition at 10 µM (A20)?
The inhibition at 10 µM was 0%.

And the inhibition at 1 µM (DPP8)?
Its inhibition at 1 µM is 1%.

What about the inhibition at 10 µM (DPP8) of the same compound?
Its inhibition at 10 µM is 11%.

What about the inhibition at 10 µM [4] of the same compound?
Its inhibition at 10 µM is -5%.

And the inhibition at 1 µM (Cathepsin B)?
Its inhibition at 1 µM is 1%.

What about the inhibition at 10 µM (Cathepsin B) of the same compound?
The inhibition at 10 µM was 2%.

What about the inhibition at 10 µM (M3 (h)) of the same compound?
The inhibition at 10 µM was 1%.

And the inhibition at 1 µM (Deubiquitinase OTUD6B)?
The inhibition at 1 µM was 0%.

What about the inhibition at 10 µM (Deubiquitinase OTUD6B) of the same compound?
The inhibition at 10 µM was 0%.

What about the inhibition at 10 µM (5-HT1A (h)) of the same compound?
Its inhibition at 10 µM is -5%.

What about the inhibition at 1 µM (Cathepsin L) of the same compound?
Its inhibition at 1 µM is 0%.

What about the inhibition at 10 µM (Cathepsin L) of the same compound?
Its inhibition at 10 µM is -6%.

What about the inhibition at 1 µM (Caspase-3) of the same compound?
Its inhibition at 1 µM is -2%.

What about the inhibition at 10 µM (Caspase-3) of the same compound?
Its inhibition at 10 µM is -1%.

And the inhibition at 10 µM (mu (MOP) (h))?
The inhibition at 10 µM was -10%.
